ChEMBL document CHEMBL1149007, “The Ichthyotoxic Principles of Zanthoxylum clava-herculis” (J Nat Prod, 1986)

System: Pimephales promelas
Experiment: Ichthyotoxicity in Pimephales promelas assessed as mortality measured every 30 mins for 2 hrs
Type: organism-based

In the case of `CC(=O)N1CCc2cc3c(c4c2[C@H]1Cc1ccccc1-4)OCO3`, the IC50 is reported as 300 µM.
